The values below come from patent publication US7973018B2, “Cell cycle arrest and apoptosis” (University of Utah Research Foundation, priority 2004, dated 2011).

“Also recorded” adds a separate entry of the source.

One experiment concerns γ-H2AX. Description: γ-H2AX focus formation, immunofluorescence confocal microscopy. The format is cell-based, human. The procedure: (§1) Immunofluorescence staining. HeLa cells were harvested 48 h posttransduction by trypsinization. Single-cell suspensions of minced thymic tissue were prepared for immunostaining 20 h after HIV-1NL4-3 infection. Cells were fixed with 2% paraformaldehyde in phosphate-buffered saline (PBS) for 35 min at 4° C. and then washed three times for 5 min each time in PBS. All subsequent steps were carried out at room temperature. Samples were blocked and permeabilized for 20 min in blocking buffer (3% bovine serum albumin (BSA), 0.2% Triton X-100, and 0.01% skim milk in PBS). Primary antibody (rabbit anti-γ-H2AX (48) or rabbit anti-BRCA1 (Bethyl Laboratories, Montgomery, Tex.)) was diluted 1:400 in incubation buffer (1% BSA and 0.02% Triton X-100 in PBS) and incubated with cells for 45 min. Cells were washed with PBS, after which secondary antibody (goat anti-rabbit immunoglobulin G (IgG)-AlexaFluor568 conjugate (Molecular Probes, Eugene, Oreg.)) diluted 1:500 in incubation buffer was applied for 35 min. Cells were washed with PBS as before and mounted on glass slides by using Fluor Save reagent (CalBiochem, San Diego, Calif.). Cells were visualized for γ-H2AX or BRCA1 immunostaining and green fluorescent protein (GFP) expression by scanning fluorescence confocal microscopy (FluoView FV300; Olympus, Melville, N.Y.).
(§2) Drug treatment. Cells were incubated with 10 mM hydroxyurea (HU) for 2 h before immunostaining was done.
(§3) Vpr expression induces γ-H2AX and BRCA1 focus formation. It was possible that Vpr, through ATR activation, would induce γ-H2AX (9) and BRCA1 (45) focus formation. To test this hypothesis, HeLa cells were infected with pHR-Vpr or pHR-GFP and, 48 h later, immunostained with γ-H2AX- or BRCA1-specific antibodies. As a positive control, nontransduced cells were treated for […] with 10 mM HU 10 min prior to immunostaining (46). Samples then were visualized by fluorescence scanning confocal microscopy (FIGS. 3A and B). Cells with multiple (10 or more), intense nuclear foci were manually counted. […]

The subject of experiment [1] is BRCA1. Description: BRCA1 focus formation, immunofluorescence confocal microscopy. The experiment is classed as cell-based, human. The procedure:
as §1, §2, §3

A further experiment deals with ATR and ATM. To be noted: references 40, 53; cited from earlier work.
In another experiment the test system is ATM and ATR. Particulars: vpr-infected cells; references 5, 53; cited from earlier work.
The subject of another experiment is HeLa cells. Description: Cell cycle analysis (G2 arrest) by flow cytometry in HeLa cells. Details: key: P, phosphorylated; A, activated; N, necessary for G2 checkpoint activation; F, focus formation; ?, unknown; D, dispensable for G2 checkpoint activation. Particulars: ATR target Rad17; this work. The experiment is classed as cell-based, human. The procedure:
Cell cycle analysis. At 48 h after infection, cells were detached by trypsinization, washed with fluorescence-activated cell sorting (FACS) buffer (2% FBS and 0.02% sodium azide in PBS), fixed with 2% paraformaldehyde in PBS, and permeabilized with 0.01% Triton X-100 in PBS for 15 min. Cells were washed again with FACS buffer, incubated in DNA staining buffer (10 μg of propidium iodide/ml and 11.25 kU of RNase A/ml in FACS buffer) for 15 min, and analyzed by FACScan flow cytometry for GFP expression or DNA content (Beckton Dickinson, Franklin Lakes, N.J.). In experiments involving transduction with lentivirus vectors, experiments with 90% transduction efficiency or higher were analyzed. […]
Lentivirus vectors. […] Vector titers were measured by infection of HeLa cells as described herein, followed by flow cytometric analysis of cells that were positive for the reporter molecule, GFP. Vector titers were calculated with the equation [(F×C0)/V]×D, where F is the frequency of GFP-positive cells found by flow cytometry, C0 is the total number of target cells at the time of infection, V is the volume of inoculum, and D is the virus dilution factor. […]
Rad17 is necessary for Vpr-mediated G2 arrest. […] At 48 h after transduction, cells were analyzed by flow cytometry for infection efficiency and DNA content, as reported by GFP expression and propidium iodide staining, respectively. […]
(In flow cytometry, cells or beads pass a laser one at a time.)

Experiment [2] deals with BRCA1. Description: Western blot for BRCA1 phospho-serine 1423. The format is cell-based, human. Particulars: HeLa cells infected with pHR-VPR, 48 hours post-transduction. The procedure: Western blotting procedures. All western blots were performed using the BioRad Criterion gel system (BioRad, Hercules, Calif.). Antibodies used were GADD45 (Santa Cruz Biotechnology, Santa Cruz, Calif.; sc-797), Actin (Santa Cruz Biotechnologies, Santa Cruz, Calif.; sc-797), CHK2 (Santa Cruz Biotechnology, Santa Cruz, Calif.; sc-8813), ATM (Novus Biologicals, Littleton, Colo.; catalog #100-104H1), phospho-JNK-Tyr183 (Cell Signaling Technology, Beverly, Mass.; catalog #9255S), phospho-p38 kinase (Promega, Madison; 15823207), JNK (Cell Signaling Technology, Beverly, Mass.; 9252), ATR (obtained from Dr. Paul Nghiem, Harvard), anti-rabbit secondary-HRP (Santa Cruz Biotechnology, Santa Cruz, Calif.; sc-2030), anti-goat secondary-HRP (Santa Cruz Biotechnology, Santa Cruz, Calif.; sc-2033), PARP (Cell Signaling Technology, Beverly, Mass.), BRCA1 phospho ser1423 (Bethyl Laboratories, Montgomery, Tex.) Rabbit primary antibodies against Rad17 (Santa Cruz Biotechnology, Santa Cruz, Calif.), and were applied for 90 min at room temperature. Blots were washed three times in TPBS (0.1% Tween 20 in PBS) for 10 min each time at room temperature.
Phosphorylation of BRCA1 at serine 1423 by HIV-1 Vpr is ATR-dependent. Following DNA damage, ATR phosphorylates BRCA1 at serine 1423 (45, 63). […]

The next experiment relates to Chk1. Particulars: ATR target Chk1; reference 40; cited from earlier work.
The test system of another experiment is p53. Also noted: key: P, phosphorylated; A, activated; N, necessary for G2 checkpoint activation; F, focus formation; ?, unknown; D, dispensable for G2 checkpoint activation. Particulars: ATR target p53; reference 41; cited from earlier work.
Where [3] appears, read: nontransduced HeLa cells treated for 1 h with 10 mM HU.
The mark [4] stands for this setting: HeLa cells, 48 h after infection, 10 or more intense nuclear foci.

For the molecule `NC(=O)NO` [HU, hydroxyurea, reference compound], the “cells exhibiting γ-H2AX foci” value in the experiment with γ-H2AX (setting [3]) was “Approximately 94%”. Besides, in the experiment with BRCA1 [1] (setting [3]), the “cells exhibiting BRCA1 foci” value is listed as around 65%.
For `Cn1c(=O)c2c(ncn2C)n(C)c1=O` [caffeine], the “relief of Vpr-induced G2 arrest” value in the experiment on ATR and ATM is “completely relieve Vpr-induced G2 arrest”. Moreover, in the experiment with ATM and ATR, the “effect on Vpr-induced apoptosis” value is on record as “largely eliminated induction of apoptosis; also recorded: significantly reduces Vpr-induced apoptosis”.
In the case of “Vpr: HIV-1 accessory protein Vpr, expressed in cells from pHR-Vpr”, the “Status in the presence of Vpr (reference or source): Rad17” value with HeLa cells is “N (this work)”. In addition, the “Status in the presence of Vpr (reference or source): H2AX” value with γ-H2AX (ATR target H2AX, this work) is “P, F (this work)”. Also, the “cells exhibiting γ-H2AX foci” value with γ-H2AX (setting [4]) is “Approximately 93%”. The “Status in the presence of Vpr (reference or source): BRCA1” value in the experiment on BRCA1 [1] (ATR target BRCA1, this work) was “P, F (this work)”. Further, the “cells exhibiting BRCA1 foci” value in the experiment on BRCA1 [1] (setting [4]) is reported as around 69%. In the experiment on BRCA1 [2], the “phosphorylation of BRCA1 at serine 1423” value is “induced phosphorylation of BRCA1 at serine 1423”. Further, in the experiment on Chk1, the “Status in the presence of Vpr (reference or source): Chk1” value was “P, A (40)”. For the same molecule, in the experiment with p53, the “Status in the presence of Vpr (reference or source): p53” value is recorded as “D (41)”.
